Source: US20180237441A1, “Chemical Compounds” (GlaxoSmithKline Intellectual Property (No.2) Limited, priority 2015, published 2018)

These molecules were tested against T1, PERK (Homo sapiens, UniProt Q9NZJ5) (assay: PERK enzyme assay (HTRF)). Settings: 500 μM ATP; at least one experimental run; read-out: PERK Enzyme (500 μM ATP) IC50.
T1 sequence (Q9NZJ5 30-1116): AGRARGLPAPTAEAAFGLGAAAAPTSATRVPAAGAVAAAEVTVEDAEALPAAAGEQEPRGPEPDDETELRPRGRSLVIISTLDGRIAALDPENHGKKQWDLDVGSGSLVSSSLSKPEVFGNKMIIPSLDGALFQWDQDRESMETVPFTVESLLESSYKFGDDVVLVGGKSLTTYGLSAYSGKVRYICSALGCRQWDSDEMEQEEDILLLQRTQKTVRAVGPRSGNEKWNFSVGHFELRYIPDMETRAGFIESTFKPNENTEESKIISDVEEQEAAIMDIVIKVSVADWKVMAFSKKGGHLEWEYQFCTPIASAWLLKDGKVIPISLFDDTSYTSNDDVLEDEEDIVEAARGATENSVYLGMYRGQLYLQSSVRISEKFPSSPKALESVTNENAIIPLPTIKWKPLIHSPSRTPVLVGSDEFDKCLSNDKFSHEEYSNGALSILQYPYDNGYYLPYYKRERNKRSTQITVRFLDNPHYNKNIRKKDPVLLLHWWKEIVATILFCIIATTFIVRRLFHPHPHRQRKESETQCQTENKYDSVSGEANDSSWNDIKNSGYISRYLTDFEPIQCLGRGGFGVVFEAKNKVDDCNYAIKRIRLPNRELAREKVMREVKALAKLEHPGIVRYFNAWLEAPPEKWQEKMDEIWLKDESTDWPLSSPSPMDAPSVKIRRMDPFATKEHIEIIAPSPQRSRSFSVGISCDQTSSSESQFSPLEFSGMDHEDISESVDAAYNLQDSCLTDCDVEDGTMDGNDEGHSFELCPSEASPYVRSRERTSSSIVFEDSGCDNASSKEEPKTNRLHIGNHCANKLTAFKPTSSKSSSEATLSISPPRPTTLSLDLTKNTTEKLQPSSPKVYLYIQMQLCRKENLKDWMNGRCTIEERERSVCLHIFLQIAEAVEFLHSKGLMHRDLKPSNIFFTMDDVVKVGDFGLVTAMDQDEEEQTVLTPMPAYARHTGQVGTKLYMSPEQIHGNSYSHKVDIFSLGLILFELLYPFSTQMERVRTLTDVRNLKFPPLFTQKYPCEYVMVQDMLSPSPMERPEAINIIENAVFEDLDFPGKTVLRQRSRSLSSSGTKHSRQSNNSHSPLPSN
Assay type: biochemical
In short: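 HTRF read-out after 2 h of EDTA-quenched reactions, detecting phospho-eIF2α with Eu/APC reagents, gave IC50 values. Reaction: 0.75 nM GST-PERK, 30–60 min compound pre-incubation (max 1% DMSO), then 60 min with 40 nM biotin-eIF2α and 500 μM ATP, HEPES pH 7.5 buffer.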
CN1C(=O)N(c2ccc(-c3cn(C)c4ncnc(N)c34)c(F)c2)CC1c1cc(F)cc(F)c1 (single isomer, unassigned) [Example 100, 1-(4-(4-amino-7-methyl-7H-pyrrolo[2,3-d]pyrimidin-5-yl)-3-fluorophenyl)-4-(3,5-difluorophenyl)-3-methylimidazolidin-2-one] showed an IC50 of 3 nM.
In the case of CCN1C(=O)N(c2ccc(-c3cn(C)c4ncnc(N)c34)c(F)c2)CC1c1cc(F)cc(C(F)(F)F)c1 (single isomer, unassigned) [Example 88, 1-(4-(4-amino-7-methyl-7H-pyrrolo[2,3-d]pyrimidin-5-yl)-3-fluorophenyl)-3-ethyl-4-(3-fluoro-5-(trifluoromethyl)phenyl)imidazolidin-2-one], the IC50 is reported as 192 nM.

Same assay, conditions: PERK Enzyme (500 μM ATP) IC50; at least one experimental run; read-out: PERK Activity
Molecule CN1C(=O)N(c2ccc(-c3cn(C)c4ncnc(N)c34)c(F)c2)CC1c1cccc(F)c1F (single isomer, unassigned) [Example 77, 1-(4-(4-amino-7-methyl-7H-pyrrolo[2,3-d]pyrimidin-5-yl)-3-fluorophenyl)-4-(2,3-difluorophenyl)-3-methylimidazolidin-2-one] has an IC50 of less than 100 nM.
CN1C(=O)N(c2ccc(-c3cn(C)c4ncnc(N)c34)c(F)c2)CC1c1ccc(F)cc1 (centres unmarked) [Example 68, 1-(4-(4-amino-7-methyl-7H-pyrrolo[2,3-d]pyrimidin-5-yl)-3-fluorophenyl)-4-(4-fluorophenyl)-3-methylimidazolidin-2-one] showed an IC50 of less than 100 nM.
Cc1cccc(C2CC(=O)N(c3ccc(-c4cn(C)c5ncnc(N)c45)c(F)c3)C2)n1 (centres unmarked) [Example 33, 1-(4-(4-amino-7-methyl-7H-pyrrolo[2,3-d]pyrimidin-5-yl)-3-fluorophenyl)-4-(6-methylpyridin-2-yl)pyrrolidin-2-one] was tested, and the IC50 was 100 to 1000 nM.
CN1C(=O)N(c2ccc(-c3cn(C)c4ncnc(N)c34)c(F)c2)CC1c1cc(F)cc(Cl)c1 (centres unmarked) [Example 16, 1-(4-(4-amino-7-methyl-7H-pyrrolo[2,3-d]pyrimidin-5-yl)-3-fluorophenyl)-4-(3-chloro-5-fluorophenyl)-3-methylimidazolidin-2-one] gave an IC50 of 100 to 1000 nM.
Work on Cn1cc(-c2ccc(N3CC(c4ccc(F)cc4F)CC3=O)cc2F)c2c(N)ncnc21 (centres unmarked) [Example 34, 1-(4-(4-amino-7-methyl-7H-pyrrolo[2,3-d]pyrimidin-5-yl)-3-fluorophenyl)-4-(2,4-difluorophenyl)pyrrolidin-2-one] yielded an IC50 of 100 to 1000 nM.
For CN1C(=O)N(c2ccc(-c3cn(C4CC4)c4ncnc(N)c34)c(F)c2)CC1c1cccc(Cl)c1 (single isomer, unassigned) [Example 153, 1-(4-(4-amino-7-cyclopropyl-7H-pyrrolo[2,3-d]pyrimidin-5-yl)-3-fluorophenyl)-4-(3-chlorophenyl)-3-methylimidazolidin-2-one], the IC50 was 100 to 1000 nM.
Molecule CN1C(=O)N(c2ccc(-c3cn(C4CC4)c4ncnc(N)c34)c(F)c2)CC1c1ccc(F)cc1F (single isomer, unassigned) [Example 155, 1-(4-(4-amino-7-cyclopropyl-7H-pyrrolo[2,3-d]pyrimidin-5-yl)-3-fluorophenyl)-4-(2,4-difluorophenyl)-3-methylimidazolidin-2-one] has an IC50 of less than 100 nM.
For Cn1cc(-c2ccc(N3CC(c4cc(F)ccc4F)CC3=O)cc2F)c2c(N)ncnc21 (centres unmarked) [Example 31, 1-(4-(4-amino-7-methyl-7H-pyrrolo[2,3-d]pyrimidin-5-yl)-3-fluorophenyl)-4-(2,5-difluorophenyl)pyrrolidin-2-one], the IC50 was 100 to 1000 nM.
With Cc1nc(N)c2c(-c3ccc(N4CC(c5ccc(F)c(F)c5)N(C)C4=O)cc3F)cn(C)c2n1 (centres unmarked) [Example 78, 1-(4-(4-amino-2,7-dimethyl-7H-pyrrolo[2,3-d]pyrimidin-5-yl)-3-fluorophenyl)-4-(3,4-difluorophenyl)-3-methylimidazolidin-2-one] the IC50 was less than 100 nM.
Cc1cccc(C2CN(c3ccc(-c4cn(C)c5ncnc(N)c45)c(F)c3)C(=O)N2C)c1 (centres unmarked) [Example 39, 1-(4-(4-amino-7-methyl-7H-pyrrolo[2,3-d]pyrimidin-5-yl)-3-fluorophenyl)-3-methyl-4-(m-tolyl)imidazolidin-2-one] gave an IC50 of 100 to 1000 nM.
Cc1nc(N)c2c(-c3ccc(N4CC(c5cc(F)ccc5F)N(C)C4=O)cc3F)cn(C)c2n1 (centres unmarked) [Example 15, 1-(4-(4-amino-2,7-dimethyl-7H-pyrrolo[2,3-d]pyrimidin-5-yl)-3-fluorophenyl)-4-(2,5-difluorophenyl)-3-methylimidazolidin-2-one] gave an IC50 of less than 100 nM.
Cc1nc(N)c2c(-c3ccc(N4CC(c5ccc(F)c(F)c5)N(C)C4=O)cc3F)cn(C)c2n1 (single isomer, unassigned) [Example 80, 1-(4-(4-amino-2,7-dimethyl-7H-pyrrolo[2,3-d]pyrimidin-5-yl)-3-fluorophenyl)-4-(3,4-difluorophenyl)-3-methylimidazolidin-2-one] showed an IC50 of less than 100 nM.
Cc1c(-c2ccc(N3CC(c4ccc(F)cc4F)N(C)C3=O)cc2F)c2c(N)ncnc2n1C (centres unmarked) [Example 94, 1-(4-(4-amino-6,7-dimethyl-7H-pyrrolo[2,3-d]pyrimidin-5-yl)-3-fluorophenyl)-4-(2,4-difluorophenyl)-3-methylimidazolidin-2-one] gave an IC50 of 100 to 1000 nM.
CCN1C(=O)N(c2ccc(-c3cn(C)c4nc(C)nc(N)c34)c(F)c2)CC1c1cc(F)ccc1F (centres unmarked) [Example 19, 1-(4-(4-amino-2,7-dimethyl-7H-pyrrolo[2,3-d]pyrimidin-5-yl)-3-fluorophenyl)-4-(2,5-difluorophenyl)-3-ethylimidazolidin-2-one] gave an IC50 greater than 1000 nM.
CN1C(=O)N(c2ccc(-c3cn(C)c4ncnc(N)c34)c(F)c2)CC1c1ccccn1 (centres unmarked) [Example 7, 1-(4-(4-amino-7-methyl-7H-pyrrolo[2,3-d]pyrimidin-5-yl)-3-fluorophenyl)-3-methyl-4-(pyridin-2-yl)imidazolidin-2-one] gave an IC50 of less than 100 nM.
Molecule CN1C(=O)N(c2ccc(-c3cn(C4CC4)c4ncnc(N)c34)c(F)c2)CC1c1ccc(F)c(F)c1 (single isomer, unassigned) [Example 116, 1-(4-(4-amino-7-cyclopropyl-7H-pyrrolo[2,3-d]pyrimidin-5-yl)-3-fluorophenyl)-4-(3,4-difluorophenyl)-3-methylimidazolidin-2-one] has an IC50 of less than 100 nM.
In the case of CN1C(=O)N(c2ccc(-c3cn(C4CC4)c4ncnc(N)c34)c(F)c2)CC1c1cc(F)c(F)cc1F (single isomer, unassigned) [Example 160, 1-(4-(4-amino-7-cyclopropyl-7H-pyrrolo[2,3-d]pyrimidin-5-yl)-3-fluorophenyl)-3-methyl-4-(2,4,5-trifluorophenyl)imidazolidin-2-one], the IC50 is reported as less than 100 nM.
CN1C(=O)N(c2ccc(-c3cn(C4CC4)c4ncnc(N)c34)c(F)c2)CC1c1ccccc1 (centres unmarked) [Example 149, 1-(4-(4-amino-7-cyclopropyl-7H-pyrrolo[2,3-d]pyrimidin-5-yl)-3-fluorophenyl)-3-methyl-4-phenylimidazolidin-2-one] gave an IC50 of less than 100 nM.
CN1C(=O)N(c2ccc(-c3cn(C4CC4)c4ncnc(N)c34)c(F)c2)CC1c1ccc(F)cc1F (centres unmarked) [Example 108, 1-(4-(4-amino-7-cyclopropyl-7H-pyrrolo[2,3-d]pyrimidin-5-yl)-3-fluorophenyl)-4-(2,4-difluorophenyl)-3-methylimidazolidin-2-one] showed an IC50 of less than 100 nM.
Molecule COc1ccc(C2CN(c3ccc(-c4cn(C)c5nc(C)nc(N)c45)c(F)c3)C(=O)N2C)cc1 (centres unmarked) [Example 64, 1-(4-(4-amino-2,7-dimethyl-7H-pyrrolo[2,3-d]pyrimidin-5-yl)-3-fluorophenyl)-4-(4-methoxyphenyl)-3-methylimidazolidin-2-one] has an IC50 of 100 to 1000 nM.
CN1C(=O)N(c2ccc(-c3cn(C4CC4)c4ncnc(N)c34)c(F)c2)CC1c1cc(F)cc(F)c1F (single isomer, unassigned) [Example 143, 1-(4-(4-amino-7-cyclopropyl-7H-pyrrolo[2,3-d]pyrimidin-5-yl)-3-fluorophenyl)-3-methyl-4-(2,3,5-trifluorophenyl)imidazolidin-2-one] was tested, and the IC50 was 100 to 1000 nM.
For CN1C(=O)N(c2ccc(-c3nn(C)c4ncnc(N)c34)c(F)c2)CC1c1ccc(F)cc1F (centres unmarked) [Example 99, 1-(4-(4-amino-1-methyl-1H-pyrazolo[3,4-d]pyrimidin-3-yl)-3-fluorophenyl)-4-(2,4-difluorophenyl)-3-methylimidazolidin-2-one], the IC50 was less than 100 nM.
CN1C(=O)N(c2ccc(-c3cn(C)c4ncnc(N)c34)c(F)c2)CC1c1cc(F)cc(F)c1 (single isomer, unassigned) [Example 100, 1-(4-(4-amino-7-methyl-7H-pyrrolo[2,3-d]pyrimidin-5-yl)-3-fluorophenyl)-4-(3,5-difluorophenyl)-3-methylimidazolidin-2-one] was tested, and the IC50 was less than 100 nM.
CCN1C(=O)N(c2ccc(-c3cn(C)c4ncnc(N)c34)c(F)c2)CC1c1cc(F)cc(C(F)(F)F)c1 (single isomer, unassigned) [Example 88, 1-(4-(4-amino-7-methyl-7H-pyrrolo[2,3-d]pyrimidin-5-yl)-3-fluorophenyl)-3-ethyl-4-(3-fluoro-5-(trifluoromethyl)phenyl)imidazolidin-2-one] showed an IC50 of 100 to 1000 nM.
